# Biological target: T1, RORγ (Homo sapiens, UniProt P51449)
# T1 construct: The concentration of B-RORγ LBD was 40 nM
# T1 sequence (P51449 269-508 limits assumed): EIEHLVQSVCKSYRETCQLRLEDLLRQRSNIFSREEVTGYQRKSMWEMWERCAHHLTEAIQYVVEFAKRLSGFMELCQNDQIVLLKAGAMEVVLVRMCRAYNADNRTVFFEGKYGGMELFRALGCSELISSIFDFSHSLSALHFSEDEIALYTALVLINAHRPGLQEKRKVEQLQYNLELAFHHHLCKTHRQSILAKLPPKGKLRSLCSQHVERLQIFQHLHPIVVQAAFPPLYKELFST
# Test: Fluorescence resonance energy transfer (FRET) test, B-RORγ LBD / Biotin-SRC1
# Type: biochemical
# Details: not given
# Method: Biological Example 1 Fluorescence Resonance Energy Transfer (FRET) Test
# (1) Preparation of RORγ Test Buffer and 10 mM of DTT
# 100 mL of 1× Basic test buffer (HEPES (pH 7.4), 100 mM NaCl, 0.01% BSA) was prepared, and 154.25 mg of DTT was added. The mixture was well mixed.
# (2) Preparation of Compound with Gradient Concentration
# a. Standard compound was prepared: Standard compound was diluted with 100% DMSO to 2.5 mM, then diluted 3-fold with 11 serial dilutions to a final concentration of […];
# b. Test compound was prepared referring to the standard compound.
# (3) Preparation of 1× Protein Solution Mixture
# (§1) a. Preparation of the desired amount of 2× B-RORγ LBD/SA-APC protein mixture: The concentration of B-RORγ LBD was 40 nM, and the concentration of SA-APC was 20 nM. They were mixed by gently inversion, and incubated at room temperature for 15 minutes. Then 400 nM of biotin was added. The mixture was mixed by gently inversion, and incubated at room temperature for 10 minutes;
# as §1, with “b.” for “a.”, “Biotin-SRC1/SA-eu” for “B-RORγ LBD/SA-APC”, “Bioin-SRC1” for “B-RORγ LBD”, “SA-eu” for “SA-APC”, “200” for “400”
# c. The protein mixtures prepared in step a and step b were mixed at a ratio of 1:1, and incubated at room temperature for 5 minutes;
# d. 25 μL of the mixture from step c was added to the 384-well plate containing the test compound;
# e. The mixture was centrifuged at 1000 rpm for one minute;
# f. The mixture was incubated for 1 hour at room temperature.
# (4) Data Collection and Calculation
# After incubation at room temperature for 1 hour, the fluorescence values at 665 nm and 615 nm were measured with an EnVision plate reader, and the inhibition rate was calculated.
# Inhibition rate %)=[(X−Min)/(Max−Min)]×100%
# X is the fluorescence value ratio of “665/615” of the test compound; Min is the average value of “665/615” of the DMSO blank control; Max is the average value of “665/615” of the 10 μM SRC.
row,Structure (SMILES),IC50 [nM]
1,CCS(=O)(=O)c1ccc([C@H](CO)NC(=O)c2ccc(N3C[C@H](Oc4ccc(C(F)(F)F)cc4)C[C@H]3COCCC(F)F)cc2)cc1 [Example 44],51
2,CCC(F)(F)OC[C@@H]1C[C@H](Oc2ccc(C(F)(F)F)cc2)CN1c1ccc(C(=O)N[C@@H](CO)c2ccc(S(=O)(=O)CC)cc2)cc1 [Example 45],17
3,CCS(=O)(=O)c1ccc([C@H](CO)NC(=O)c2ccc(N3C[C@H](Oc4ccc(C(F)(F)F)cc4)C[C@H]3CCOC(F)F)cc2)cc1 [Example 46],13.2
4,CCS(=O)(=O)c1ccc([C@H](CO)NC(=O)c2ccc(N3C[C@@H](Oc4ccc(C(F)(F)F)cc4)C[C@H]3CCOC(F)F)cc2)cc1 [Example 47],4.6
5,CCS(=O)(=O)c1ccc([C@H](CO)NC(=O)c2ccc(N3C[C@H](Oc4ccc(C(F)(F)F)cc4)C[C@H]3COCC3CC3)nc2)cc1 [Example 50],52
6,CCS(=O)(=O)c1ccc([C@H](CO)NC(=O)c2ccc(N3C[C@H](Oc4ccc(C(F)(F)F)cc4)C[C@H]3COC(F)F)nc2)cc1 [Example 52],49.9
7,CCS(=O)(=O)c1ccc([C@H](CO)NC(=O)c2ccc(N3C[C@@H](Oc4ccc(C(F)(F)F)cc4)C[C@H]3COC(F)F)nc2)cc1 [Example 53],3
8,CCC(F)(F)OC[C@@H]1C[C@H](Oc2ccc(C(F)(F)F)cc2)CN1c1ccc(C(=O)N[C@@H](CO)c2ccc(S(=O)(=O)CC)cc2)cn1 [Example 55],9
9,"CCS(=O)(=O)c1ccc(CNC(=O)c2cnc(N3C[C@H](Oc4ccc(C(F)(F)F)cc4)C[C@H]3COCCF)nc2)cc1 [Example 58, N-(4-(ethylsulfonyl)benzyl)-2-((2S, 4R)-2-((2-fluoroethoxy)methyl)-4-(4-(trifluoromethyl)phenoxy)pyrrolidin-1-yl)pyrimidine-5-carboxamide]",57.3
10,"CCS(=O)(=O)c1ccc([C@H](CO)NC(=O)c2cnc(N3C[C@H](Oc4ccc(C(F)(F)F)cc4)C[C@H]3COCCF)nc2)cc1 [Example 59, N—((R)-1-(4-(ethylsulfonyl)phenyl)-2-hydroxyethyl)-2-((2S,4R)-2-((2-fluoroethoxy)methyl)-4-(4-(trifluoromethyl)phenoxy)pyrrolidin-1-yl)pyrimidine-5-carboxamide]",28
11,CCS(=O)(=O)c1ccc([C@H](CO)NC(=O)c2cnc(N3C[C@H](Oc4ccc(C(F)(F)F)cc4)C[C@H]3COCC3CC3)nc2)cc1 [Example 60],33.8
12,CCS(=O)(=O)c1ccc([C@H](CO)NC(=O)c2cnc(N3C[C@H](Oc4ccc(C(F)(F)F)cc4)C[C@H]3CCOC(F)F)nc2)cc1 [Example 63],48
13,CCS(=O)(=O)c1ccc([C@H](CO)NC(=O)c2cnc(N3C[C@@H](Oc4ccc(C(F)(F)F)cc4)C[C@H]3COC(F)F)nc2)cc1 [Example 64],3
14,CCC(F)(F)OC[C@@H]1C[C@H](Oc2ccc(C(F)(F)F)cc2)CN1c1ncc(C(=O)N[C@@H](CO)c2ccc(S(=O)(=O)CC)cc2)cn1 [Example 67],8
15,CCS(=O)(=O)c1ccc([C@H](CO)NC(=O)c2ccc(N3C[C@H](Oc4ccc(C(F)(F)F)cc4)C[C@H]3COC(F)F)cc2)nc1 [Example 68],75.3
16,CCS(=O)(=O)c1ccc([C@H](CO)NC(=O)c2ccc(N3C[C@@H](Oc4ccc(C(F)(F)F)cc4)C[C@H]3COC(F)F)cc2)nc1 [Example 69],4
17,CCS(=O)(=O)c1ccc([C@H](CO)NC(=O)c2ccc(N3C[C@@H](Oc4ccc(C(F)(F)F)cc4)C[C@H]3COC(F)F)nc2)nc1 [Example 70],7.6
18,CCS(=O)(=O)c1ccc([C@H](CO)NC(=O)c2cnc(N3C[C@@H](Oc4ccc(C(F)(F)F)cc4)C[C@H]3COC(F)F)nc2)nc1 [Example 71],9.3

row,Structure (SMILES),IC50 [nM]
1,CCC(F)(F)OC[C@@H]1C[C@H](Oc2ccc(C(F)(F)F)cc2)CN1c1ccc(C(=O)N[C@@H](CO)c2ccc(S(=O)(=O)CC)cn2)cc1 [Example 73],13
2,CCC(F)(F)OC[C@@H]1C[C@H](Oc2ccc(C(F)(F)F)cc2)CN1c1ccc(C(=O)N[C@@H](CO)c2ccc(S(=O)(=O)CC)cn2)cn1 [Example 74],11
3,CCC(F)(F)OC[C@@H]1C[C@H](Oc2ccc(C(F)(F)F)cc2)CN1c1ncc(C(=O)N[C@@H](CO)c2ccc(S(=O)(=O)CC)cn2)cn1 [Example 75],12.1
4,"CCS(=O)(=O)c1ccc([C@H](CO)NC(=O)c2ccc(N3CC[C@H](Oc4ccc(C(F)(F)F)cc4)C3)c(F)c2)cc1 [Example 79, N—((R)-1-(4-(ethylsulfonyl)phenyl)-2-hydroxyethyl)-3-fluoro-4-((S)-3-(4-(trifluoromethyl)phenoxy)pyrrolidin-1-yl)benzamide]",13
5,"CCS(=O)(=O)c1ccc([C@H](CO)NC(=O)c2cnc(N3CC[C@H](Oc4ccc(C(F)(F)F)cc4)C3)c(F)c2)cc1 [Example 81, N—((R)-1-(4-(ethylsulfonyl)phenyl)-2-hydroxyethyl)-5-fluoro-6-((S)-3-(4-(trifluoromethyl)phenoxy)pyrrolidin-1-yl)nicotinamide]",78
6,"CCS(=O)(=O)c1ccc([C@H](CO)NC(=O)c2ccc(N3C[C@@H](Oc4ccc5c(c4)OC(F)(F)O5)C[C@H]3COC(F)F)cc2)cc1 [Example 82, 4-((2S,4S)-4-((2,2-difluorobenzo[d][1,3]dioxol-5-yl)oxy)-2-((difluoromethoxy)methyl)pyrrolidin-1-yl)-N—((R)-1-(4-(ethylsulfonyl)phenyl)-2-hydroxyethyl)benzamide]",4
7,CCS(=O)(=O)c1ccc([C@H](CO)NC(=O)c2ccc(N3C[C@@H](Oc4ccc(C(F)(F)F)nc4)C[C@H]3COC(F)F)cc2)cc1 [Example 83],6
8,CCS(=O)(=O)c1ccc([C@H](CO)NC(=O)c2ccc(N3C[C@@H](Oc4ccc(C(F)(F)F)cc4)C[C@H]3COC(F)F)c(F)c2)cc1 [Example 85],4.5
9,CCS(=O)(=O)c1ccc([C@H](CO)NC(=O)c2ccc(N3C[C@@H](Oc4ccc(C(F)(F)F)cc4)C[C@H]3COC(F)F)cc2F)cc1 [Example 86],6
10,CCS(=O)(=O)c1ccc([C@H](CO)NC(=O)c2ccc(N3C[C@@H](Oc4ccc(C(F)(F)F)cc4)C[C@H]3COC(F)F)nc2OC)cc1 [Example 88],30
11,CCS(=O)(=O)c1ccc([C@H](CO)NC(=O)c2ccc(N3C[C@@H](Oc4ccc(C(F)(F)F)cc4)C[C@H]3COC(F)F)c(OC)c2)cc1 [Example 89],26
12,CCS(=O)(=O)c1ccc([C@H](CO)NC(=O)c2ccc(N3C[C@@H](Oc4ccc(C(F)(F)F)cc4)C[C@H]3COC(F)F)cc2OC)cc1 [Example 90],30
13,"CCS(=O)(=O)c1ccc([C@H](CO)NC(=O)c2ccc(N3C[C@@H](Oc4ccc(C(F)(F)F)cc4)C[C@H]3COC(F)(F)F)nc2)cc1 [Example 94, N—((R)-1-(4-(ethylsulfonyl)phenyl)-2-hydroxyethyl)-6-((2S,4S)-2-((trifluoromethoxy)methyl)-4-(4-(trifluoromethyl)phenoxy)pyrrolidin-1-yl)nicotinamide]",8
14,"CCS(=O)(=O)c1ccc([C@H](CO)NC(=O)c2cnc(N3C[C@H](Oc4ccc(C(F)(F)F)cc4)C[C@H]3COC(F)(F)F)nc2)cc1 [Example 95, N—((R)-1-(4-(ethylsulfonyl)phenyl)-2-hydroxyethyl)-2-((2S,4R)-2-((trifluoromethoxy)methyl)-4-(4-(trifluoromethyl)phenoxy)pyrrolidin-1-yl)pyrimidine-5-carboxamide]",45
15,"CCS(=O)(=O)c1ccc([C@H](CO)NC(=O)c2ccc(N3C[C@@H](Oc4ccc(C(F)(F)F)cc4)C[C@H]3COC(F)(F)F)cc2C#N)cc1 [Example 96, 2-cyano-N—((R)-1-(4-(ethylsulfonyl)phenyl)-2-hydroxyethyl)-4-((2S,4S)-2-((trifluoromethoxy)methyl)-4-(4-(trifluoromethyl)phenoxy)pyrrolidin-1-yl)benzamide]",64
16,CCS(=O)(=O)c1ccc([C@@H](CO)NC(=O)c2ccc(N3C[C@@H](Oc4ccc(C(F)(F)F)cc4)C[C@H]3COC(F)F)cc2)cc1 [Example 98],17
17,CCS(=O)(=O)c1ccc(CNC(=O)c2ccc(N3C[C@@H](Oc4ccc(OC(F)(F)F)cn4)C[C@H]3COC(F)F)cc2)cc1 [Example 107],78

# Same assay, conditions: inhibitory activity of RORγ at the molecular level, FRET 665/615; read-out: IC50
row,Structure (SMILES),IC50 [nM]
1,CCS(=O)(=O)c1ccc([C@H](CO)NC(=O)c2ccc(N3C[C@H](Oc4ccc(C(F)(F)F)cc4)C[C@H]3COC(C)(F)F)cc2)cc1 [Example 42],17.8
